{"source": "patent US10287301B2", "about": "(Achillion Pharmaceuticals, Inc., priority 2015, dated 2019)", "data": [{"target": "Human Factor D (Homo sapiens (Human), UniProt P00746)", "sequence (P00746 26-253)": "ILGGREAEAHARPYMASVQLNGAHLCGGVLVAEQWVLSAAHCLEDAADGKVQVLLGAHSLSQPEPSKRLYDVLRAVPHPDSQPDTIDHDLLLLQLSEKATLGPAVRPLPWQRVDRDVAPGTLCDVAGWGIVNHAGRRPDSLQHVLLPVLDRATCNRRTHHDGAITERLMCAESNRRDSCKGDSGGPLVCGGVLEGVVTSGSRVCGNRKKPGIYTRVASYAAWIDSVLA", "assay": "Human Factor D Assay", "format": "biochemical", "details": "Human Factor D 80 nM, substrate Z-L-Lys-SBzl; read-out: IC50", "procedure,_shortened": "(§1)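 Thioesterase activity monitored with Z-L-Lys-SBzl plus Ellman's reagent (DTNB), each 100 μM final, after 5 min room-temperature compound preincubation of 80 nM human serum Factor D in pH 7.5 Tris (50 mM)/1M NaCl.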", "units": {"IC50": "nM"}, "values": [{"smiles": "NC(=O)c1nn(CC(=O)N2C[C@H](F)C[C@H]2C(=O)Nc2nnc(-c3ccccc3Cl)s2)c2ccc(-c3ccnnc3)cc12", "note": "[Compound 115, 1-(2-((2S,4R)-2-(5-(2-chlorophenyl)-1,3,4-thiadiazol-2-ylcarbamoyl)-4-fluoropyrrolidin-1-yl)-2-oxoethyl)-5-(pyridazin-4-yl)-1H-indazole-3-carboxamide]", "IC50": "> 10000"}, {"smiles": "CC(=O)c1cn(CC(=O)N2C[C@H](F)C[C@H]2C(=O)Nc2nc(-c3c(C)nc4sccn34)cs2)c2ccc(-c3ccnnc3)cc12", "note": "[Compound 57]", "IC50": "> 10000"}, {"smiles": "COc1ncc(-c2ccc3c(c2)c(C(C)=O)cn3CC(=O)N2C[C@H](F)C[C@H]2C(=O)Nc2cccc(-c3ccccc3Cl)c2F)cn1", "note": "[Compound 27, (2S,4R)-1-(2-(3-acetyl-5-(2-methoxypyrimidin-5-yl)-1H-indol-1-yl)acetyl)-N-(2′-chloro-2-fluorobiphenyl-3-yl)-4-fluoropyrrolidine-2-carboxamide]", "IC50": "< 1000"}]}, {"target": "Human Factor D (Homo sapiens (Human), UniProt P00746)", "assay": "Human Factor D Assay", "format": "biochemical", "details": "Human Factor D assay of Example 8; Table 2; read-out: IC50", "procedure,_shortened": "as §1", "units": {"IC50": "nM"}, "values": [{"smiles": "CC(=O)c1nn(CC(=O)N2C[C@H](F)C[C@H]2C(=O)Nc2cccc(Br)n2)c2ccc(-c3cnc4ccnn4c3)cc12", "note": "[Compound 234, (2S,4R)-1-(2-(3-acetyl-5-(pyrazolo[1,5-a]pyrimidin-6-yl)-1H-indazol-1-yl)acetyl)-N-(6-bromopyridin-2-yl)-4-fluoropyrrolidine-2-carboxamide]", "IC50": "< 1000"}, {"smiles": "CC(=O)c1nn(CC(=O)N2C[C@H](F)C[C@H]2C(=O)Nc2cccc(Br)c2F)c2ccc(-c3cnc(C)nc3)cc12", "note": "[Compound 273, (2S,4R)-1-(2-(3-acetyl-5-(2-methylpyrimidin-5-yl)-1H-indazol-1-yl)acetyl)-N-(3-bromo-2-fluorophenyl)-4-fluoropyrrolidine-2-carboxamide]", "IC50": "< 1000"}, {"smiles": "CC(=O)c1ncc(-c2ccc3c(c2)c(C(C)=O)cn3CC(=O)N2C[C@H](F)C[C@H]2C(=O)Nc2cccc(Br)n2)cn1", "note": "[Compound 218, (2S,4R)-1-(2-(3-acetyl-5-(2-acetylpyrimidin-5-yl)-1H-indol-1-yl)acetyl)-N-(6-bromopyridin-2-yl)-4-fluoropyrrolidine-2-carboxamide]", "IC50": "< 1000"}, {"smiles": "CC(=O)c1cn(CC(=O)N2C[C@H](F)C[C@H]2C(=O)Nc2cccc(-c3ccccc3Cl)c2F)c2ccc(-c3cnc(C(N)=O)nc3)cc12", "note": "[Compound 209, 5-(3-acetyl-1-(2-((2S,4R)-2-(2′-chloro-2-fluorobiphenyl-3-ylcarbamoyl)-4-fluoropyrrolidin-1-yl)-2-oxoethyl)-1H-indol-5-yl)pyrimidine-2-carboxamide]", "IC50": "< 1000"}]}, {"target": "Human Factor D (Homo sapiens (Human), UniProt P00746)", "assay": "Human Factor D Assay", "format": "biochemical", "details": "Human Factor D, Table 3; read-out: IC50", "procedure,_shortened": "as §1", "units": {"IC50": "nM"}, "values": [{"smiles": "CC(=O)c1nn(CC(=O)N2[C@@H]3C[C@@H]3C[C@H]2C(=O)Nc2cccc(OC(F)(F)F)n2)c2ccc(-c3cnc4cc(C)nn4c3)cc12", "note": "[Compound 670, (1R,3S,5R)-2-(2-(3-Acetyl-5-(2-methylpyrazolo[1,5-a]pyrimidin-6-yl)-1H-indazol-1-yl)acetyl)-N-(6-(trifluoromethoxy)pyridin-2-yl)-2-azabicyclo[3.1.0]hexane-3-carboxamide]", "IC50": "< 1000"}, {"smiles": "CC(=O)c1nn(CC(=O)N2CC[C@H]2C(=O)Nc2cccc(C)n2)c2ccc(-c3ccc(C)nc3)cc12", "note": "[Compound 588, (S)-1-(2-(3-Acetyl-5-(6-methylpyridin-3-yl)-1H-indazol-1-yl)acetyl)-N-(6-methylpyridin-2-yl)azetidine-2-carboxamide]", "IC50": "> 10000"}, {"smiles": "CC(=O)c1nn(CC(=O)N2[C@@H]3C[C@@H]3C[C@H]2C(=O)Nc2cncc(Br)n2)c2ccc(-c3cnc4ccnn4c3)cc12", "note": "[Compound 664, (1R,3S,5R)-2-(2-(3-Acetyl-5-(pyrazolo[1,5-a]pyrimidin-6-yl)-1H-indazol-1-yl)acetyl)-N-(6-bromopyrazin-2-yl)-2-azabicyclo[3.1.0]hexane-3-carboxamide]", "IC50": "< 1000"}, {"smiles": "CNc1ncc2cc(-c3cn(CC(=O)N4C[C@H](F)C[C@H]4C(=O)Nc4cccc(Br)n4)nc3C(N)=O)ccc2n1", "note": "[Compound 723, 1-(2-((2S,4R)-2-((6-Bromopyridin-2-yl)carbamoyl)-4-fluoropyrrolidin-1-yl)-2-oxoethyl)-4-(2-(methylamino)quinazolin-6-yl)-1H-pyrazole-3-carboxamide]", "IC50": "> 10000"}, {"smiles": "COCc1ccc(Br)nc1NC(=O)[C@@H]1C[C@@H](F)CN1C(=O)Cn1nc(C(C)=O)c2cc(-c3cnc(C)nc3)ccc21", "note": "[Compound 606, (2S,4R)-1-(2-(3-Acetyl-5-(2-methylpyrimidin-5-yl)-1H-indazol-1-yl)acetyl)-N-(6-bromo-3-(methoxymethyl)pyridin-2-yl)-4-fluoropyrrolidine-2-carboxamide]", "IC50": "< 1000"}, {"smiles": "CC(=O)c1nn(CC(=O)N2C[C@H](F)C[C@H]2C(=O)Nc2cccc(Br)n2)c2ccc(-c3cnn4c3CCC4)cc12", "note": "[Compound 693, (2S,4R)-1-(2-(3-Acetyl-5-(5,6-dihydro-4H-pyrrolo[1,2-b]pyrazol-3-yl)-1H-indazol-1-yl)acetyl)-N-(6-bromopyridin-2-yl)-4-fluoropyrrolidine-2-carboxamide]", "IC50": "< 1000"}]}, {"target": "Human Factor D (Homo sapiens (Human), UniProt P00746)", "assay": "Human Factor D Assay", "format": "biochemical", "details": "Table 3; Human Factor D 80 nM, substrate Z-L-Lys-SBzl; read-out: IC50 (Stars)", "procedure,_shortened": "as §1", "units": {"IC50": "nM"}, "values": [{"smiles": "CC(=O)c1nn(CC(=O)N2C[C@H](F)C[C@H]2C(=O)NC/C(F)=C(/C)c2cccc(Cl)c2)c2ccc(-c3cnc(C)nc3)cc12", "note": "[Compound 503, (2S,4R)-1-(2-(3-acetyl-5-(2-methylpyrimidin-5-yl)-1H-indazol-1-yl)acetyl)-N-((E)-3-(3-chlorophenyl)-2-fluorobut-2-en-1-yl)-4-fluoropyrrolidine-2-carboxamide]", "IC50": "< 1000"}, {"smiles": "CC(=O)c1nn(CC(=O)N2C[C@@H](N)[C@H](F)[C@H]2C(=O)Nc2cccc(Br)n2)c2ccc(-c3cnc(C)nc3)cc12", "note": "[Compound 428, (2R,3S,4R)-1-(2-(3-Acetyl-5-(2-methylpyrimidin-5-yl)-1H-indazol-1-yl)acetyl)-4-amino-N-(6-bromopyridin-2-yl)-3-fluoropyrrolidine-2-carboxamide]", "IC50": "> 10000"}, {"smiles": "COc1cc(Br)nc(NC(=O)[C@@H]2C[C@@H](F)CN2C(=O)Cn2nc(C(C)=O)c3cc(-c4cnc(OC)nc4)ccc32)c1", "note": "[Compound 431, (2S,4R)-1-(2-(3-Acetyl-5-(2-methoxypyrimidin-5-yl)-1H-indazol-1-yl)acetyl)-N-(6-bromo-4-methoxypyridin-2-yl)-4-fluoropyrrolidine-2-carboxamide]", "IC50": "< 1000"}, {"smiles": "CC(=O)N[C@@H]1CN(C(=O)Cn2nc(C(C)=O)c3cc(-c4cnc(C)nc4)ccc32)[C@H](C(=O)Nc2cccc(Br)n2)[C@H]1F", "note": "[Compound 513, (2R,3S,4R)-4-Acetamido-1-(2-(3-acetyl-5-(2-methylpyrimidin-5-yl)-1H-indazol-1-yl)acetyl)-N-(6-bromopyridin-2-yl)-3-fluoropyrrolidine-2-carboxamide]", "IC50": "< 1000"}, {"smiles": "COC[C@@]12C[C@@H](C(=O)Nc3cccc(Br)n3)N(C(=O)Cn3nc(C(C)=O)c4cc(-c5cnc(C)nc5)ccc43)[C@@H]1C2", "note": "[Compound 416, (1R,3S,5S)-2-(2-(3-Acetyl-5-(2-methylpyrimidin-5-yl)-1H-indazol-1-yl)acetyl)-N-(6-bromopyridin-2-yl)-5-(methoxymethyl)-2-azabicyclo[3.1.0]hexane-3-carboxamide]", "IC50": "< 1000"}, {"smiles": "CC(=O)c1nn(CC(=O)N2C[C@H](F)C[C@H]2C(=O)Nc2nn(CC(F)(F)F)cc2Br)c2ccc(-c3cnc(C)nc3)cc12", "note": "[Compound 420, (2S,4R)-1-(2-(3-Acetyl-5-(2-methylpyrimidin-5-yl)-1H-indazol-1-yl)acetyl)-N-(4-bromo-1-(2,2,2-trifluoroethyl)-1H-pyrazol-3-yl)-4-fluoropyrrolidine-2-carboxamide]", "IC50": "< 1000"}]}]}
